The results in this text go back to patent publication US10336762B2 (priority 2017, dated 2019).

pEC50, pIC50: −log10 of the molar value. Where only a bound is given, the exact number is not on record here.

One assay addresses IRAK4 enzyme (Homo sapiens (Human), UniProt Q9NWZ3). Put plainly: biochemical. The settings on record: IRAK4 enzyme, TR-FRET (HTRF), 500 μM ATP. It is filed as biochemical. On the technique in general: TR-FRET usually uses a lanthanide donor and a delayed reading to cut background.
In the next assay the test system is TNFα. Description: cells. It is filed as cell-based, human. The following applies: Homo sapiens, Monocyte, LPS-stimulated human monocytes, TNFα content; read-out: EC50 TNF.

Sequence of IRAK4 enzyme (Q9NWZ3 whole entry): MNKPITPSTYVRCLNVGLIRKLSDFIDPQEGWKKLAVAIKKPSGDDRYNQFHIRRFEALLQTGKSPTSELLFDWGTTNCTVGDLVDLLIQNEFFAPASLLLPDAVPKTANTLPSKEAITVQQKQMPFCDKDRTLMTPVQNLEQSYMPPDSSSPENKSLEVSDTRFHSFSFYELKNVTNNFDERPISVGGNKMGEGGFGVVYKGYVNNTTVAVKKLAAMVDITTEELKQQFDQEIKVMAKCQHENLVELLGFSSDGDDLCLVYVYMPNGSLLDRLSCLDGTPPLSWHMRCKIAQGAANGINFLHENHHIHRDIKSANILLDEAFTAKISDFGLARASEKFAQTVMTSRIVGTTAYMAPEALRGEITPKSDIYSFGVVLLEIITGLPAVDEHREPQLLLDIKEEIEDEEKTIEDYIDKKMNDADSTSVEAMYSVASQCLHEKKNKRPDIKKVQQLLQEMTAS
Experimental for TNFα: IRAK4 Monocyte TNFα Cell Based Assay Procedure:
The cell suspension was then plated at a density of 5,000 cells/well onto black 384 well Greiner clear bottom plates. Plates were pre-spotted with test compounds and serially diluted in DMSO where 200 nL/well were delivered using the Echo 550 acoustic liquid dispenser (Labcyte®) for a final DMSO concentration of 0.5%. Plated cells were treated with compound for 1 hour at 37° C. Cells were then stimulated with 50 pg/ml of LPS (Sigma) excluding outside columns of plate used for unstimulated cell control wells. Cells were incubated for an additional 4 hours at 37° C. Cells were then spun out of the media and 5 μl of sample were taken and analyzed for total TNFα content using the TR-FRET Human TNFα detection system (CisBio). This system utilizes two labeled antibodies (cryptate and XL665) that bind to two different epitopes of the TNFα molecule and produce FRET signal proportional to the concentration of TNFα in the sample. Detection antibodies are mixed 50:50 and 5 μL were dispensed into each well. Plates were covered with clear seals and incubated at room temp overnight. […] Percent of control was calculated as follows: % Control=100×(RatioSample−Ratio0% stimulation)/(Ratio100% Stimulation−Ratio0% Stimulation) where unstimulated cells (0% stimulation) were the negative control and stimulated cells (100% stimulation) were used as the positive control.

As usually defined, the pIC50 is −log10 of the IC50, conventionally taken in molar units. The low end stands for a high IC50, the high end for a low IC50. Usually pEC50 stands for −log10 of the EC50, conventionally taken in molar units. Turning to `CC(C)(O)[C@H](F)CNC(=O)c1cnc(-c2ccc3cc(C#N)cnn23)cc1NC[C@@H](F)C(C)(C)O` [Example 560, 6-(3-cyanopyrrolo[1,2-b]pyridazin-7-yl)-N-((R)-2-fluoro-3-hydroxy-3-methylbutyl)-4-(((R)-2-fluoro-3-hydroxy-3-methylbutyl)amino) nicotinamide], the pIC50 on IRAK4 enzyme was more than 9.00. Besides, in the assay on TNFα, the negative logarithm of the EC50 (pEC50) is 7.08.

Turning to `CC(C)Nc1cc(-c2ccc3cc(C#N)cnn23)ncc1C(=O)NCCC(C)(N)C(F)(F)F` (centres unmarked) [Example 561, N-(3-amino-4,4,4-trifluoro-3-methylbutyl)-6-(3-cyano-pyrrolo[1,2-b]pyridazin-7-yl)-4-(isopropylamino) nicotinamide], the pIC50 at IRAK4 enzyme is 9.00. Further, the pEC50 in the assay on TNFα was 6.92.

As for `CC(C)(O)[C@H](F)CNC(=O)c1cnc(-c2ccc3cc(C#N)cnn23)cc1NCCC(C)(N)C(F)(F)F` (stereo partly drawn) [Example 562, 4-((3-amino-4,4,4-trifluoro-3-methylbutyl)amino)-6-(3-cyanopyrrolo[1,2-b]pyridazin-7-yl)-N-((R)-2-fluoro-3-hydroxy-3-methylbutyl)nicotinamide], on IRAK4 enzyme, the pIC50 was 9.00. The pEC50 in the assay on TNFα was 7.12.

In turn, `Cc1cn2ccc(Nc3cc(-c4ccc5cc(C#N)cnn45)ncc3C(=O)NC[C@@H](F)C(C)(C)O)cc2n1` [Example 563, (R)-6-(3-cyanopyrrolo[1,2-b]pyridazin-7-yl)-N-(2-fluoro-3-hydroxy-3-methylbutyl)-4-((2-methyl-imidazo[1,2-a]pyridin-7-yl)amino)nicotinamide] gave a pIC50 at IRAK4 enzyme of 8.70. Also, the pEC50 in the assay with TNFα is 6.94.

For the compound `COC(=O)c1ccc(Nc2cc(-c3ccc4cc(C#N)cnn34)ncc2C(=O)NC[C@@H](F)C(C)(C)O)cc1OC` [Example 564, (R)-methyl 4-((2-(3-cyano-pyrrolo[1,2-b]pyridazin-7-yl)-5-((2-fluoro-3-hydroxy-3-methylbutyl)carbamoyl)pyridin-4-yl)amino)-2-methoxybenzoate], the pIC50 against IRAK4 enzyme was 7.64. In the assay on TNFα, the pEC50 is 6.50.

Regarding `CC1(C)C(=O)Nc2cc(Nc3cc(-c4ccc5cc(C#N)cnn45)ncc3C(=O)NC[C@@H](F)C(C)(C)O)ccc21` [Example 565, (R)-6-(3-cyanopyrrolo[1,2-b]pyridazin-7-yl)-4-((3,3-dimethyl-2-oxoindolin-6-yl)amino)-N-(2-fluoro-3-hydroxy-3-methylbutyl) nicotinamide], the pIC50 on IRAK4 enzyme was more than 9.00. In addition, the pEC50 in the assay on TNFα was 7.64.

At IRAK4 enzyme, `CC(C)(O)[C@H](F)CNC(=O)c1cnc(-c2ccc3cc(C#N)cnn23)cc1Nc1cnc2cc[nH]c2c1` [Example 566, (R)-4-((1H-pyrrolo[3,2-b]pyridin-6-yl)amino)-6-(3-cyanopyrrolo[1,2-b]pyridazin-7-yl)-N-(2-fluoro-3-hydroxy-3-methyl-butyl)nicotinamide] showed a pIC50 of more than 9.00. In addition, the pEC50 in the assay on TNFα is 7.57.

`CC(C)(O)[C@H](F)CNC(=O)c1cnc(-c2ccc3cc(C#N)cnn23)cc1Nc1ccc(OC2COC2)cc1` [Example 567, (R)-6-(3-cyanopyrrolo[1,2-b]pyridazin-7-yl)-N-(2-fluoro-3-hydroxy-3-methylbutyl)-4-((4-(oxetan-3-yloxy)phenyl)amino)nicotinamide] had a pIC50 against IRAK4 enzyme of more than 9.00. The pEC50 in the assay with TNFα was 7.30.

On IRAK4 enzyme, `CC(C)(O)[C@H](F)CNC(=O)c1cnc(-c2ccc3cc(C#N)cnn23)cc1Nc1ccc2oc(=O)[nH]c2c1` [Example 568, (R)-6-(3-cyanopyrrolo[1,2-b]pyridazin-7-yl)-N-(2-fluoro-3-hydroxy-3-methylbutyl)-4-((2-oxo-2,3-dihydrobenzo[d]oxazol-5-yl)amino)nicotinamide] showed a pIC50 of more than 9.00. Further, the pEC50 with TNFα is 6.67.

Compound `CC(C)(O)[C@H](F)CNC(=O)c1cnc(-c2ccc3cc(C#N)cnn23)cc1Nc1ccn2ccnc2c1` [Example 570, (R)-6-(3-cyanopyrrolo[1,2-b]pyridazin-7-yl)-N-(2-fluoro-3-hydroxy-3-methyl-butyl)-4-(imidazo[1,2-a]pyridin-7-ylamino) nicotinamide] gave a pIC50 against IRAK4 enzyme of more than 9.00. In the assay with TNFα, the pEC50 is 7.10.

`CC(C)(O)[C@H](F)CNC(=O)c1cnc(-c2ccc3cc(C#N)cnn23)cc1Nc1ccc2c(C#N)c[nH]c2c1` [Example 571, (R)-4-((3-cyano-1H-indol-6-yl)amino)-6-(3-cyano-pyrrolo[1,2-b]pyridazin-7-yl)-N-(2-fluoro-3-hydroxy-3-methylbutyl)nicotinamide]: the pIC50 on IRAK4 enzyme is more than 9.00. The pEC50 with TNFα was 7.92.

On to `CC(C)(O)[C@H](F)CNC(=O)c1cnc(-c2ccc3cc(C#N)cnn23)cc1Nc1ccc2ncsc2c1` [Example 572, (R)-4-(benzo[d]thiazol-6-ylamino)-6-(3-cyano-pyrrolo[1,2-b]pyridazin-7-yl)-N-(2-fluoro-3-hydroxy-3-methylbutyl)nicotinamide], for which the pIC50 against IRAK4 enzyme is more than 9.00. The pEC50 with TNFα is 7.18.

Take `CC(C)(O)[C@H](F)CNC(=O)c1cnc(-c2ccc3cc(C#N)cnn23)cc1Nc1ccc2c(c1)NC(=O)C2` [Example 573, (R)-6-(3-cyanopyrrolo[1,2-b]pyridazin-7-yl)-N-(2-fluoro-3-hydroxy-3-methyl-butyl)-4-((2-oxoindolin-6-yl)amino)nicotinamide]: the pIC50 at IRAK4 enzyme is more than 9.00. Also, the pEC50 in the assay with TNFα is 7.62.

For `CC(C)(O)[C@H](F)CNC(=O)c1cnc(-c2ccc3cc(C#N)cnn23)cc1Nc1ccc2cn[nH]c2c1` [Example 574, (R)-4-((1H-indazol-6-yl)amino)-6-(3-cyano-pyrrolo[1,2-b]pyridazin-7-yl)-N-(2-fluoro-3-hydroxy-3-methylbutyl) nicotinamide], at IRAK4 enzyme, the pIC50 was more than 9.00. Moreover, the pEC50 in the assay with TNFα was 7.24.

For `CN(C)C(=O)c1ccc(Nc2cc(-c3ccc4cc(C#N)cnn34)ncc2C(=O)NC[C@@H](F)C(C)(C)O)cn1` [Example 575, (R)-5-((2-(3-cyano-pyrrolo[1,2-b]pyridazin-7-yl)-5-((2-fluoro-3-hydroxy-3-methylbutyl)carbamoyl)pyridin-4-yl)amino)-N,N-dimethyl-picolinamide], the pIC50 against IRAK4 enzyme was 8.70. In addition, the pEC50 in the assay with TNFα was 6.84.

`CC(C)(O)[C@H](F)CNC(=O)c1cnc(-c2ccc3cc(C#N)cnn23)cc1Nc1ccc2[nH]ccc2c1` [Example 576, (R)-4-((1H-indol-5-yl)amino)-6-(3-cyano-pyrrolo[1,2-b]pyridazin-7-yl)-N-(2-fluoro-3-hydroxy-3-methylbutyl) nicotinamide] showed a pIC50 against IRAK4 enzyme of more than 9.00. In the assay with TNFα, the pEC50 is 7.68.

For `CC(C)(O)[C@H](F)CNC(=O)c1cnc(-c2ccc3cc(C#N)cnn23)cc1Nc1ccc2[nH]ncc2c1` [Example 577, (R)-4-((1H-indazol-5-yl)amino)-6-(3-cyano-pyrrolo[1,2-b]pyridazin-7-yl)-N-(2-fluoro-3-hydroxy-3-methylbutyl) nicotinamide], the pIC50 on IRAK4 enzyme is more than 9.00. Besides, in the assay with TNFα, the pEC50 was 7.52.

`CC(C)(O)[C@H](F)CNC(=O)c1cnc(-c2ccc3cc(C#N)cnn23)cc1Nc1ccc2cc[nH]c2c1` [Example 578, (R)-4-((1H-indol-6-yl)amino)-6-(3-cyano-pyrrolo[1,2-b]pyridazin-7-yl)-N-(2-fluoro-3-hydroxy-3-methylbutyl) nicotinamide] gave a pIC50 at IRAK4 enzyme of 8.70. Besides, in the assay with TNFα, the pEC50 was 7.85.

`CNC(=O)c1ccc(Nc2cc(-c3ccc4cc(C#N)cnn34)ncc2C(=O)NC[C@@H](F)C(C)(C)O)cn1` [Example 579, (R)-5-((2-(3-cyano-pyrrolo[1,2-b]pyridazin-7-yl)-5-((2-fluoro-3-hydroxy-3-methylbutyl)carbamoyl)pyridin-4-yl)amino)-N-methylpicolinamide] showed a pIC50 against IRAK4 enzyme of more than 9.00. The pEC50 in the assay with TNFα was 7.12.

In turn, `CC(C)(O)[C@H](F)CNC(=O)c1cnc(-c2ccc3cc(C#N)cnn23)cc1Nc1ccc2nc[nH]c2c1` [Example 580, (R)-4-((1H-benzo[d]imidazol-6-yl)amino)-6-(3-cyanopyrrolo[1,2-b]pyridazin-7-yl)-N-(2-fluoro-3-hydroxy-3-methyl-butyl)nicotinamide] had a pIC50 against IRAK4 enzyme of more than 9.00. In addition, the pEC50 with TNFα was 7.16.

As for `Cc1cc(Nc2cc(-c3ccc4cc(C#N)cnn34)ncc2C(=O)NC[C@@H](F)C(C)(C)O)ccc1C(N)=O` [Example 581, (R)-4-((4-carbamoyl-3-methylphenyl)amino)-6-(3-cyanopyrrolo[1,2-b]pyridazin-7-yl)-N-(2-fluoro-3-hydroxy-3-methylbutyl)nicotinamide], on IRAK4 enzyme, the pIC50 is more than 9.00. Besides, the pEC50 in the assay on TNFα was 6.94.

Regarding `Cc1cc(Nc2cc(-c3ccc4cc(C#N)cnn34)ncc2C(=O)NC[C@@H](F)C(C)(C)O)ncc1C(N)=O` [Example 582, (R)-4-((5-carbamoyl-4-methylpyridin-2-yl)amino)-6-(3-cyanopyrrolo[1,2-b]pyridazin-7-yl)-N-(2-fluoro-3-hydroxy-3-methyl-butyl)nicotinamide], at IRAK4 enzyme, the pIC50 is 8.52. Further, the pEC50 with TNFα is 6.41.

In turn, `Cc1cc(Nc2cc(-c3ccc4cc(C#N)cnn34)ncc2C(=O)NC[C@@H](F)C(C)(C)O)ccc1C#N` [Example 583, (R)-4-((4-cyano-3-methylphenyl)amino)-6-(3-cyanopyrrolo[1,2-b]pyridazin-7-yl)-N-(2-fluoro-3-hydroxy-3-methylbutyl)nicotinamide] had a pIC50 against IRAK4 enzyme of 8.70. The pEC50 in the assay on TNFα is 6.85.

In turn, `CC(C)(O)[C@H](F)CNC(=O)c1cnc(-c2ccc3cc(C#N)cnn23)cc1Nc1ncc(F)cn1` [Example 584, (R)-6-(3-cyanopyrrolo[1,2-b]pyridazin-7-yl)-N-(2-fluoro-3-hydroxy-3-methylbutyl)-4-((5-fluoro-pyrimidin-2-yl)amino)nicotinamide] showed a pIC50 on IRAK4 enzyme of 8.40. Moreover, the pEC50 in the assay on TNFα is 6.56.

In turn, `Cc1cc(Nc2cc(-c3ccc4cc(C#N)cnn34)ncc2C(=O)NC[C@@H](F)C(C)(C)O)ncc1C#N` [Example 585, (R)-4-((5-cyano-4-methyl-pyridin-2-yl)amino)-6-(3-cyanopyrrolo[1,2-b]pyridazin-7-yl)-N-(2-fluoro-3-hydroxy-3-methyl-butyl)nicotinamide] gave a negative logarithm of the IC50 (pIC50) against IRAK4 enzyme of 8.70. Further, the pEC50 in the assay with TNFα is 6.98.
